Columns and labels:
Tumor necrosis factor [1] = biological target: T1, Tumor necrosis factor (Homo sapiens, UniProt P01375); test: Inhibition of human TNF assessed as reduction in TNF-induced cell death of actinomycin D activated mouse L929 cells preincubated for 30 mins followed by cell addition measured after 18 to 24 hrs by crystal violet staining based spectrophotometric analysis
Tumor necrosis factor [2] = biological target: T1, Tumor necrosis factor; test: Binding affinity to human GST-tagged TNF extracellular domain expressed in Escherichia coli BL21(DE3)pLysS cells by fluorescence spectrophotometric analysis
Tumor necrosis factor [3] = biological target: T1, Tumor necrosis factor; test: Binding affinity to recombinant human TNF assessed as inhibition of TNF-TNFR1 interaction incubated for 1 hr by ELISA

T1 sequence (P01375 whole entry, the tested form may be a part): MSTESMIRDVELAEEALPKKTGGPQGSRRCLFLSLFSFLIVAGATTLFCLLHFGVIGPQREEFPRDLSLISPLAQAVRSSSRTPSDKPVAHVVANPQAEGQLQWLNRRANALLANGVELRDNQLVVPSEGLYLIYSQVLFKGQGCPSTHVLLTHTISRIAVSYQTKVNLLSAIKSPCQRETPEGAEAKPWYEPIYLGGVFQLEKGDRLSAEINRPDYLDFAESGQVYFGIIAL

| Structure (SMILES) | IC50 (Tumor necrosis factor [1]) | Kd (Tumor necrosis factor [2]) | Kd (Tumor necrosis factor [2]; read-out: Kd) [µM] | IC50 (Tumor necrosis factor [3]) [µM] |
| --- | --- | --- | --- | --- |
| O=C(c1coc2ccccc2c1=O)N1CCN(Cc2cn(-c3cccc(C(F)(F)F)c3)c3ccc([N+](=O)[O-])cc23)CC1 | Not Active | Not Active | – | – |
| O=C(c1coc2ccccc2c1=O)N1CCN(C(=O)c2cn(-c3cccc(C(F)(F)F)c3)c3ccc([N+](=O)[O-])cc23)CC1 | Not Active | Not Active | – | – |
| O=C(c1ccccc1)N1CCN(C(=O)c2cn(-c3cccc(C(F)(F)F)c3)c3ccccc23)CC1 | Not Active | – | 15.2 | – |
| Cc1ccc2occ(CN(C)CCN(C)Cc3cn(-c4cccc(C(F)(F)F)c4)c4ccccc34)c(=O)c2c1 | – | – | 18.6 | 10 |
| CN(CCN(C)C(=O)c1cn(S(=O)(=O)c2cccc(N)c2)c2ccccc12)C(=O)c1coc2ccccc2c1=O | – | – | 0.95 | 20 |
| O=C(c1coc2ccccc2c1=O)N1CCN(C(=O)c2cn(-c3cccc([N+](=O)[O-])c3)c3ccc([N+](=O)[O-])cc23)CC1 | – | – | 0.74 | 20 |
| O=C(NCCCNC(=O)c1cn(S(=O)(=O)c2ccccc2)c2ccccc12)c1ccccc1 | Not Active | Not Active | – | – |
| O=C(NCCCCNC(=O)c1cn(S(=O)(=O)c2ccccc2)c2ccccc12)c1ccc2ccccc2c1 | Not Active | – | 18.7 | – |
| Nc1cccc(S(=O)(=O)n2cc(C(=O)N3CCN(C(=O)c4coc5ccccc5c4=O)CC3)c3ccccc32)c1 | – | – | 5.45 | 40 |
| O=C(c1ccccc1F)N1CCN(C(=O)c2c[nH]c3ccc([N+](=O)[O-])cc23)CC1 | Not Active | – | 17.9 | – |
| CN(CCN(C)C(=O)c1cn(-c2cccc(N)c2)c2ccccc12)C(=O)c1coc2ccccc2c1=O | Not Active | – | 35.2 | – |
| O=C(NCCCNC(=O)c1cn(S(=O)(=O)c2ccccc2)c2ccccc12)c1coc2ccccc2c1=O | – | – | 5.2 | 40 |
| CN(CCN(C)C(=O)c1cn(S(=O)(=O)c2ccccc2)c2ccccc12)C(=O)c1ccccc1 | Not Active | – | 17.3 | – |
| CN(CCN(C)C(=O)c1cn(S(=O)(=O)c2ccccc2)c2ccccc12)C(=O)c1ccccc1F | Not Active | Not Active | – | – |
| O=C(c1coc2ccccc2c1=O)N1CCN(C(=O)c2cn(S(=O)(=O)c3ccccc3)c3ccccc23)CC1 | – | – | 12.8 | 40 |
| CN(CCN(C)C(=O)c1cn(-c2cccc(C(F)(F)F)c2)c2ccc([N+](=O)[O-])cc12)C(=O)c1ccccc1F | Not Active | – | 10.3 | – |
| O=C(c1ccc2ccccc2c1)N1CCN(C(=O)c2cn(-c3cccc(C(F)(F)F)c3)c3ccccc23)CC1 | Not Active | Not Active | – | – |
| CN(CCN(C)C(=O)n1ccnc1)C(=O)c1cn(S(=O)(=O)c2ccccc2)c2ccccc12 | Not Active | Not Active | – | – |
| O=C(c1ccc2ccccc2c1)N1CCN(C(=O)c2cn(S(=O)(=O)c3ccccc3)c3ccccc23)CC1 | Not Active | Not Active | – | – |
| Nc1cccc(-n2cc(C(=O)N3CCN(C(=O)c4coc5ccccc5c4=O)CC3)c3ccccc32)c1 | – | – | 14.1 | 20 |
| Nc1cccc(-n2cc(C(=O)N3CCN(C(=O)C4COc5ccccc5C4=O)CC3)c3cc(N)ccc32)c1 (configuration not stated) | Not Active | Not Active | – | – |

| Structure (SMILES) | IC50 (Tumor necrosis factor [1]) | Kd (Tumor necrosis factor [2]) | Kd (Tumor necrosis factor [2]; read-out: Kd) [µM] | IC50 (Tumor necrosis factor [3]) [µM] |
| --- | --- | --- | --- | --- |
| O=C(c1coc2ccccc2c1=O)N1CCN(C(=O)c2cn(-c3cccc([N+](=O)[O-])c3)c3ccccc23)CC1 | Not Active | – | 25.4 | – |
| O=C(c1ccccc1)N1CCN(Cc2cn(-c3cccc(C(F)(F)F)c3)c3ccccc23)CC1 | – | – | 2.14 | 20 |
| Cc1ccc2occ(CN3CCN(Cc4cn(-c5cccc(C(F)(F)F)c5)c5ccccc45)CC3)c(=O)c2c1 | – | – | 4.78 | 15 |
| CN(CCN(C)C(=O)c1cn(S(=O)(=O)c2cccc([N+](=O)[O-])c2)c2ccccc12)C(=O)c1coc2ccccc2c1=O | – | – | 3.16 | 40 |
| Nc1cccc(-n2cc(C(=O)N3CCN(C(=O)c4coc5ccccc5c4=O)CC3)c3cc(N)ccc32)c1 | – | – | 15.6 | 40 |
| CN(CCN(C)C(=O)c1cn(S(=O)(=O)c2ccccc2)c2ccccc12)C(=O)c1ccc2ccccc2c1 | Not Active | – | 25 | – |
| O=C(c1ccc2ccccc2c1)N1CCN(Cc2cn(-c3cccc(C(F)(F)F)c3)c3ccc([N+](=O)[O-])cc23)CC1 | Not Active | Not Active | – | – |
| O=C(c1cn(-c2cccc(C(F)(F)F)c2)c2ccccc12)N1CCN(C(=O)n2ccnc2)CC1 | Not Active | – | > 35 | – |
| CN(CCN(C)C(=O)c1cn(S(=O)(=O)c2ccccc2)c2ccccc12)C(=O)c1coc2ccccc2c1=O | – | – | 7 | > 60 |
| Cc1cc2occ(CN3CCN(Cc4cn(-c5cccc(C(F)(F)F)c5)c5ccccc45)CC3)c(=O)c2cc1C | – | – | 10.1 | 15 |
| Cc1cc2occ(C(=O)N3CCN(C(=O)c4cn(-c5cccc(C(F)(F)F)c5)c5ccccc45)CC3)c(=O)c2cc1C | Not Active | – | 5.12 | – |
| CN(CCN(C)C(=O)c1cn(S(=O)(=O)c2ccccc2)c2ccccc12)C(=O)c1cccs1 | Not Active | – | 8.22 | – |
| O=C(c1coc2ccccc2c1=O)N1CCN(Cc2cn(-c3cccc(C(F)(F)F)c3)c3ccccc23)CC1 | – | – | 1.61 | 20 |
| O=C(NCCNC(=O)c1cn(S(=O)(=O)c2ccccc2)c2ccccc12)c1ccc2ccccc2c1 | Not Active | – | > 35 | – |
| O=C(c1ccc2ccccc2c1)N1CCN(Cc2cn(-c3cccc(C(F)(F)F)c3)c3ccccc23)CC1 | – | – | 7.82 | 40 |
| O=C(c1coc2ccccc2c1=O)N1CCN(C(=O)c2cn(S(=O)(=O)c3cccc([N+](=O)[O-])c3)c3ccccc23)CC1 | – | – | 16.8 | 40 |
| O=C(c1cccs1)N1CCN(C(=O)c2c[nH]c3ccc([N+](=O)[O-])cc23)CC1 | Not Active | – | 10.7 | – |
| Cc1cc2occ(C(=O)N(C)CCN(C)C(=O)c3cn(-c4cccc(C(F)(F)F)c4)c4ccccc34)c(=O)c2cc1C | – | – | 2.51 | > 60 |
| CN(CCN(C)C(=O)c1cn(-c2cccc(C(F)(F)F)c2)c2ccc([N+](=O)[O-])cc12)C(=O)c1coc2ccccc2c1=O | Not Active | – | 13.3 | – |
| CN(CCN(C)C(=O)c1cn(-c2cccc([N+](=O)[O-])c2)c2ccccc12)C(=O)c1coc2ccccc2c1=O | Not Active | – | 12.2 | – |

Source: ChEMBL document CHEMBL3739283, “Synthesis and biological evaluation of potential small moleculeinhibitors of tumor necrosis factor” (Medchemcomm, 2015)
